According to patent US11267800B2, “Cyclohexyl acid triazole azines as LPA antagonists” (BRISTOL-MYERS SQUIBB COMPANY, priority 2017, dated 2022):

Target: T1, human LPA1 (Homo sapiens, UniProt Q92633)
T1 construct: expressed in transfected cells; host or cells: Chinese hamster ovary (CHO) cells
Experiment: LPA1 functional antagonist assay (calcium flux)
Type: cell-based
Details: CHO cells overexpressing human LPA1; inhibition of calcium flux induced by 10 nM LPA; read-out: hLPA1 IC50
How it was run: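 Dye-loaded CHO cells overexpressing human LPA1 (30 min, 37 °C) were preincubated 20 min at room temperature with compound (0.08 nM–5 μM; 0.5% DMSO; HBSS, 20 mM HEPES, 0.1% fatty-acid-free BSA), then stimulated with 10 nM LPA. IC50 is the concentration inhibiting 50% of LPA-induced calcium flux, from a 4-parameter logistic fit.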

T1 sequence (Q92633 whole entry): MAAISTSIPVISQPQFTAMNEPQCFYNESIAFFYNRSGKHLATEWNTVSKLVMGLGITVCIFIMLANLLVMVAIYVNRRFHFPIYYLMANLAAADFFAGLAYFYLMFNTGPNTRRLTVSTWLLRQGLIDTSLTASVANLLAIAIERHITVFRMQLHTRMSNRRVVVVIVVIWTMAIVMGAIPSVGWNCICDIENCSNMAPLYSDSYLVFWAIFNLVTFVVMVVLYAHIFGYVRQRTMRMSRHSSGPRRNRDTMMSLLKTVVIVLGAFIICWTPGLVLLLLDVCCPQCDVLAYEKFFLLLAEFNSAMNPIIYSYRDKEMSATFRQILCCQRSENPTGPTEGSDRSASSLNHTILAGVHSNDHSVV

**Q.** For `CCCc1ncnc(NCc2c(-c3ccc(O[C@H]4CCC[C@H](C(=O)O)C4)cn3)nnn2C)n1` [Example 221, (1S,3S)-3-((6-(1-methyl-5-(((4-propyl-1,3,5-triazin-2-yl)amino)methyl)-1H-1,2,3-triazol-4-yl)pyridin-3-yl)oxy) cyclohexane-1-carboxylic acid], which IC50 is on record?
**A.** 63 nM

**Q.** For `CCCCc1ncnc(NCc2c(-c3ccc(O[C@H]4CCC[C@H](C(=O)O)C4)cn3)nnn2C)n1` [Example 222, (1S,3S)-3-((6-(5-(((4-butyl-1,3,5-triazin-2-yl)amino)methyl)-1-methyl-1H-1,2,3-triazol-4-yl)pyridin-3-yl)oxy)cyclohexane-1-carboxylic acid], which IC50 is on record?
**A.** 68 nM

**Q.** Which IC50 does the source give for `Cn1nnc(-c2ccc(O[C@H]3CCC[C@H](C(=O)O)C3)cn2)c1CNc1ncnc(C2CC2)n1` [Example 223, (1S,3S)-3-((6-(5-(((4-cyclopropyl-1,3,5-triazin-2-yl)amino)methyl)-1-methyl-1H-1,2,3-triazol-4-yl)pyridin-3-yl)oxy)cyclohexane-1-carboxylic acid] here?
**A.** 211 nM

**Q.** How did the IC50 turn out when `CCc1ncnc(NCc2c(-c3ccc(O[C@H]4CCC[C@H](C(=O)O)C4)cn3)nnn2C)n1` [Example 224, (1S,3S)-3-((6-(5-(((4-ethyl-1,3,5-triazin-2-yl)amino)methyl)-1-methyl-1H-1,2,3-triazol-4-yl)pyridin-3-yl)oxy) cyclohexane-1-carboxylic acid] was run?
**A.** 813 nM

**Q.** With `CCc1nc(CC)nc(NCc2c(-c3ccc(O[C@H]4CCC[C@H](C(=O)O)C4)cn3)nnn2C)n1` [Example 225, (1S,3S)-3-((6-(5-(((4,6-diethyl-1,3,5-triazin-2-yl)amino)methyl)-1-methyl-1H-1,2,3-triazol-4-yl)pyridin-3-yl)oxy)cyclohexane-1-carboxylic acid] as the compound, how does the IC50 read?
**A.** 789 nM

**Q.** Which IC50 does the source give for `Cc1nc(-c2nnn(C)c2Nc2cccc(Cc3ccccc3)n2)ccc1O[C@H]1CCC[C@H](C(=O)O)C1` [Example 226, (1S,3S)-3-((6-(5-((6-benzylpyridin-2-yl)amino)-1-methyl-1H-1,2,3-triazol-4-yl)-2-methylpyridin-3-yl)oxy)cyclohexane-1-carboxylicacid] here?
**A.** 19 nM

**Q.** `Cc1nc(-c2nnn(C)c2Nc2nccc(OC3CC3)n2)ccc1O[C@H]1CCC[C@H](C(=O)O)C1` [Example 227, (1S,3S)-3-((6-(5-((4-cyclopropoxypyrimidin-2-yl)amino)-1-methyl-1H-1,2,3-triazol-4-yl)-2-methylpyridin-3-yl)oxy)cyclohexane-1-carboxylic acid] was tested. Which IC50 did it give?
**A.** 215 nM

**Q.** `Cc1nc(-c2nnn(C)c2Nc2ccnc(OC3CC3)n2)ccc1O[C@H]1CCC[C@H](C(=O)O)C1` [Example 228, (1S,3S)-3-((6-(5-((2-cyclopropoxypyrimidin-4-yl)amino)-1-methyl-1H-1,2,3-triazol-4-yl)-2-methylpyridin-3-yl)oxy)cyclohexane-1-carboxylic acid] was tested. Which IC50 did it give?
**A.** 215 nM

**Q.** For `CCOc1ccnc(Nc2c(-c3ccc(O[C@H]4CCC[C@H](C(=O)O)C4)c(C)n3)nnn2C)n1` [Example 229, (1S,3S)-3-((6-(5-((4-ethoxypyrimidin-2-yl)amino)-1-methyl-1H-1,2,3-triazol-4-yl)-2-methylpyridin-3-yl)oxy)cyclohexane-1-carboxylic acid], which IC50 is on record?
**A.** 165 nM

**Q.** Which IC50 does the source give for `CCCc1cccc(Nc2c(-c3ccc(O[C@H]4CCC[C@H](C(=O)O)C4)c(C)n3)nnn2C)n1` [Example 230, (1S,3S)-3-((2-methyl-6-(1-methyl-5-((6-propylpyridin-2-yl)amino)-1H-1,2,3-triazol-4-yl)pyridin-3-yl)oxy) cyclohexane-1-carboxylic acid] here?
**A.** 11 nM

**Q.** For `Cc1nc(-c2nnn(C)c2Nc2cccc(C3CC3)n2)ccc1O[C@H]1CCC[C@H](C(=O)O)C1` [Example 231, (1S,3S)-3-((6-(5-((6-cyclopropyl-pyridin-2-yl)amino)-1-methyl-1H-1,2,3-triazol-4-yl)-2-methylpyridin-3-yl)oxy)cyclohexane-1-carboxylic acid], which IC50 is on record?
**A.** 21 nM

**Q.** For `Cc1nc(-c2nnn(C)c2Nc2nccc(OCC3CC3)n2)ccc1O[C@H]1CCC[C@H](C(=O)O)C1` [Example 232, (1S,3S)-3-((6-(5-((4-(cyclopropyl-methoxy)pyrimidin-2-yl)amino)-1-methyl-1H-1,2,3-triazol-4-yl)-2-methylpyridin-3-yl)oxy)cyclohexane-1-carboxylic acid], which IC50 is on record?
**A.** 64 nM

**Q.** `Cc1nc(-c2nnn(C)c2Nc2ccnc(OCC3CC3)n2)ccc1O[C@H]1CCC[C@H](C(=O)O)C1` [Example 233, (1S,3S)-3-((6-(5-((2-(cyclopropyl-methoxy)pyrimidin-4-yl)amino)-1-methyl-1H-1,2,3-triazol-4-yl)-2-methylpyridin-3-yl)oxy)cyclohexane-1-carboxylic acid] was tested. Which IC50 did it give?
**A.** 392 nM

**Q.** With `Cc1nc(-c2nnn(C)c2Nc2cc(C3CC3)ccn2)ccc1O[C@H]1CCC[C@H](C(=O)O)C1` [Example 234, (1S,3S)-3-((6-(5-((4-cyclopropyl-pyridin-2-yl)amino)-1-methyl-1H-1,2,3-triazol-4-yl)-2-methylpyridin-3-yl)oxy)cyclohexane-1-carboxylic acid] as the compound, how does the IC50 read?
**A.** 88 nM

**Q.** For `CCCc1ccnc(Nc2c(-c3ccc(O[C@H]4CCC[C@H](C(=O)O)C4)c(C)n3)nnn2C)n1` [Example 235, (1S,3S)-3-((2-methyl-6-(1-methyl-5-((4-propylpyrimidin-2-yl)amino)-1H-1,2,3-triazol-4-yl)pyridin-3-yl)oxy) cyclohexane-1-carboxylic acid], which IC50 is on record?
**A.** 23 nM

**Q.** `CCCCc1cccc(Nc2c(-c3ccc(O[C@H]4CCC[C@H](C(=O)O)C4)c(C)n3)nnn2C)n1` [Example 236, (1S,3S)-3-((6-(5-((6-butylpyridin-2-yl)amino)-1-methyl-1H-1,2,3-triazol-4-yl)-2-methylpyridin-3-yl)oxy)cyclohexane-1-carboxylic acid] was tested. Which IC50 did it give?
**A.** 10 nM

**Q.** Which IC50 does the source give for `Cc1nc(-c2nnn(C)c2Nc2cccc(OCc3ccccc3)n2)ccc1O[C@H]1CCC[C@H](C(=O)O)C1` [Example 237, (1S,3S)-3-((6-(5-((6-(benzyloxy)pyridin-2-yl)amino)-1-methyl-1H-1,2,3-triazol-4-yl)-2-methylpyridin-3-yl)oxy)cyclohexane-1-carboxylic acid] here?
**A.** 55 nM

**Q.** For `CCCOc1nccc(Nc2c(-c3ccc(O[C@H]4CCC[C@H](C(=O)O)C4)c(C)n3)nnn2C)n1` [Example 238, (1S,3S)-3-((2-methyl-6-(1-methyl-5-((2-propoxypyrimidin-4-yl)amino)-1H-1,2,3-triazol-4-yl)pyridin-3-yl)oxy)cyclohexane-1-carboxylic acid], which IC50 is on record?
**A.** 53 nM

**Q.** Which IC50 does the source give for `CCCOc1ccnc(Nc2c(-c3ccc(O[C@H]4CCC[C@H](C(=O)O)C4)c(C)n3)nnn2C)n1` [Example 239, (1S,3S)-3-((2-methyl-6-(1-methyl-5-((4-propoxypyrimidin-2-yl)amino)-1H-1,2,3-triazol-4-yl)pyridin-3-yl)oxy) cyclohexane-1-carboxylic acid] here?
**A.** 50 nM

**Q.** Which IC50 does the source give for `CCOc1cccc(Nc2c(-c3ccc(O[C@H]4CCC[C@H](C(=O)O)C4)c(C)n3)nnn2C)n1` [Example 240, (1S,3S)-3-((6-(5-((6-ethoxypyridin-2-yl)amino)-1-methyl-1H-1,2,3-triazol-4-yl)-2-methylpyridin-3-yl)oxy) cyclohexane-1-carboxylic acid] here?
**A.** 57 nM

**Q.** Which IC50 does the source give for `Cc1nc(-c2nnn(C)c2Nc2nccc(C(C)C)n2)ccc1O[C@H]1CCC[C@H](C(=O)O)C1` [Example 241, (1S,3S)-3-((6-(5-((4-isopropyl-pyrimidin-2-yl)amino)-1-methyl-1H-1,2,3-triazol-4-yl)-2-methylpyridin-3-yl)oxy)cyclohexane-1-carboxylic acid] here?
**A.** 66 nM

**Q.** Which IC50 does the source give for `CCCOc1cccc(Nc2c(-c3ccc(O[C@H]4CCC[C@H](C(=O)O)C4)c(C)n3)nnn2C)n1` [Example 242, (1S,3S)-3-((2-methyl-6-(1-methyl-5-((6-propoxypyridin-2-yl)amino)-1H-1,2,3-triazol-4-yl)pyridin-3-yl)oxy) cyclohexane-1-carboxylic acid] here?
**A.** 11 nM

**Q.** Which IC50 does the source give for `Cn1nnc(-c2ccc(O[C@H]3CCC[C@H](C(=O)O)C3)cn2)c1Nc1nccc(OCC2CC2)n1` [Example 243, (1S,3S)-3-((6-(5-((4-(cyclopropyl-methoxy)pyrimidin-2-yl)amino)-1-methyl-1H-1,2,3-triazol-4-yl)pyridin-3-yl)oxy)cyclohexane-1-carboxylic acid] here?
**A.** 122 nM

**Q.** How did the IC50 turn out when `CCCc1cccc(Nc2c(-c3ccc(O[C@H]4CCC[C@H](C(=O)O)C4)cn3)nnn2C)n1` [Example 244, (1S,3S)-3-((6-(1-methyl-5-((6-propylpyridin-2-yl)amino)-1H-1,2,3-triazol-4-yl)pyridin-3-yl)oxy) cyclohexane-1-carboxylic acid] was run?
**A.** 43 nM

**Q.** For `CCCCc1cccc(Nc2c(-c3ccc(O[C@H]4CCC[C@H](C(=O)O)C4)cn3)nnn2C)n1` [Example 245, (1S,3S)-3-((6-(5-((6-butylpyridin-2-yl)amino)-1-methyl-1H-1,2,3-triazol-4-yl)pyridin-3-yl)oxy)cyclohexane-1-carboxylic acid], which IC50 is on record?
**A.** 32 nM

**Q.** How did the IC50 turn out when `CCCOc1ccnc(Nc2c(-c3ccc(O[C@H]4CCC[C@H](C(=O)O)C4)cn3)nnn2C)n1` [Example 246, (1S,3S)-3-((6-(1-methyl-5-((4-propoxypyrimidin-2-yl)amino)-1H-1,2,3-triazol-4-yl)pyridin-3-yl)oxy) cyclohexane-1-carboxylic acid] was run?
**A.** 225 nM

**Q.** With `CCCc1ccnc(Nc2c(-c3ccc(O[C@H]4CCC[C@H](C(=O)O)C4)cn3)nnn2C)n1` [Example 247, (1S,3S)-3-((6-(1-methyl-5-((4-propylpyrimidin-2-yl)amino)-1H-1,2,3-triazol-4-yl)pyridin-3-yl)oxy) cyclohexane-1-carboxylic acid] as the compound, how does the IC50 read?
**A.** 318 nM

**Q.** How did the IC50 turn out when `CCOc1cccc(Nc2c(-c3ccc(O[C@H]4CCC[C@H](C(=O)O)C4)cn3)nnn2C)n1` [Example 248, (1S,3S)-3-((6-(5-((6-ethoxypyridin-2-yl)amino)-1-methyl-1H-1,2,3-triazol-4-yl)pyridin-3-yl)oxy)cyclohexane-1-carboxylic acid] was run?
**A.** 111 nM
